This assay concerns the target T1, human μ-opiate receptor (Homo sapiens, UniProt P35372).
T1 construct: purchased PerkinElmer Life Sciences, Zaventem, Belgium RB-HOM; host or cells: CHO-K1 cells (recombinant expression; membrane preparation)
The assay is described as follows: Affinity for the human μ-opiate receptor ([3H]-naloxone displacement, SPA). To be noted: Table 2, Examples 11-161; test substance 1 μmole/l; inhibition of specific [3H]-naloxone binding; CHO-K1 membranes; read-out: μ-Opioid receptor, % inhibition [1 μM]. In outline: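 CHO-K1 membranes expressing the receptor, incubated 90 min at room temperature with 1 nmol/l [3H]-naloxone and WGA-SPA beads in 50 mmol/l Tris-HCl with 0.06% BSA. Non-specific binding defined with 100 μmol/l naloxone. Value is % inhibition of specific binding at 1 μmol/l test substance.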
T1 sequence (P35372 whole entry): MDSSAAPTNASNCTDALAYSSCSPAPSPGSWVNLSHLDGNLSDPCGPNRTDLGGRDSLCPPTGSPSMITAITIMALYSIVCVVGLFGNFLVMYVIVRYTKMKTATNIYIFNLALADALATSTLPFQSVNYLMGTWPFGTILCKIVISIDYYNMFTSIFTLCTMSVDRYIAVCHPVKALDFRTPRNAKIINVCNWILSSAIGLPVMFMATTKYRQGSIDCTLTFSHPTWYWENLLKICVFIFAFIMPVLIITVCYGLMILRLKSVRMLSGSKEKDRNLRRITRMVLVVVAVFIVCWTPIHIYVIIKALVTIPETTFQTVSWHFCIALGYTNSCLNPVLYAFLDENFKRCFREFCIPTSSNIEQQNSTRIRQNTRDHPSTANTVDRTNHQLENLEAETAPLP
A word on the inhibition: it is the drop in the measured response relative to a control, in per cent. Take `CCCCN1C=NC(CCSC)(C(=O)OC)C1CC1CCC(C(CCc2ccccc2)N(C)C)CC1` (centres unmarked) [Example 128, 1-butyl-5-[4-(1-dimethylamino-3-phenylpropyl)-cyclohexylmethyl]-4-(2-methylsulfanylethyl)-4,5-dihydro-1H-imidazole-4-carboxylic acid methyl ester]: the inhibition at 1 µM turned out to be 83%.
Consider `CCCC1(C(=O)OC)N=CN(CCc2ccccc2)C1CC1CCC(C(c2cccc(F)c2)N(C)C)CC1` (centres unmarked) [Example 129, 5-{4-[dimethylamino-(3-fluorophenyl)-methyl]-cyclohexylmethyl}-1-phenethyl-4-propyl-4,5-dihydro-1H-imidazole-4-carboxylic acid methyl ester], for which the inhibition at 1 µM is 93%.
Turning to `COC(=O)C1(CCSC)N=CN(CCc2ccccc2)C1CC1CCC(C(c2cccc(F)c2)N(C)C)CC1` (centres unmarked) [Example 130, 5-{4-[dimethylamino-(3-fluorophenyl)-methyl]-cyclohexylmethyl}-4-(2-methylsulfanylethyl)-1-phenethyl-4,5-dihydro-1H-imidazole-4-carboxylic acid methyl ester], the inhibition at 1 µM was 97%.
Turning to `COC(=O)C1(C)N=CN(CCc2ccccc2)C1CC1CCC(C(c2cccc(F)c2)N(C)C)CC1` (centres unmarked) [Example 131, 5-{4-[dimethylamino-(3-fluorophenyl)-methyl]-cyclohexylmethyl}-4-methyl-1-phenethyl-4,5-dihydro-1H-imidazole-4-carboxylic acid methyl ester], the inhibition at 1 µM was 100%.
As for `CCCC1(C(=O)OC)N=CN(CCc2ccccc2)C1CC1CCC(C(c2ccc(F)cc2)N(C)C)CC1` (centres unmarked) [Example 132, 5-{4-[dimethylamino-(4-fluorophenyl)-methyl]-cyclohexylmethyl}-1-phenethyl-4-propyl-4,5-dihydro-1H-imidazole-4-carboxylic acid methyl ester], the inhibition at 1 µM stood at 98%.
Turning to `COC(=O)C1(CCSC)N=CN(CCc2ccccc2)C1CC1CCC(C(c2ccc(F)cc2)N(C)C)CC1` (centres unmarked) [Example 133, 5-{4-[dimethylamino-(4-fluorophenyl)-methyl]-cyclohexylmethyl}-4-(2-methylsulfanylethyl)-1-phenethyl-4,5-dihydro-1H-imidazole-4-carboxylic acid methyl ester], the inhibition at 1 µM came out at 84%.
On to `COC(=O)C1(C)N=CN(CCc2ccccc2)C1CC1CCC(C(c2ccc(F)cc2)N(C)C)CC1` (centres unmarked) [Example 134, 5-{4-[dimethylamino-(4-fluorophenyl)-methyl]-cyclohexylmethyl}-4-methyl-1-phenethyl-4,5-dihydro-1H-imidazole-4-carboxylic acid methyl ester], for which the inhibition at 1 µM came to 92%.
In the case of `CCCC1(C(=O)OC)N=CN(CCc2ccccc2)C1CC1CCC(C(CCc2ccccc2)N(C)C)CC1` (centres unmarked) [Example 135, 5-[4-(1-dimethylamino-3-phenylpropyl)-cyclohexylmethyl]-1-phenethyl-4-propyl-4,5-dihydro-1H-imidazole-4-carboxylic acid methyl ester], the inhibition at 1 µM was found to be 85%.
`COC(=O)C1(C)N=CN(CCc2ccccc2)C1CC1CCC(C(CCc2ccccc2)N(C)C)CC1` (centres unmarked) [Example 137, 5-[4-(1-dimethylamino-3-phenylpropyl)-cyclohexylmethyl]-4-methyl-1-phenethyl-4,5-dihydro-1H-imidazole-4-carboxylic acid methyl ester]: the inhibition at 1 µM was found to be 61%.
In the case of `CCCC1(C(=O)OC)N=CN(Cc2ccccc2)C1CC1CCC(C(c2cccc(F)c2)N(C)C)CC1` (centres unmarked) [Example 138, 1-benzyl-5-{4-[dimethylamino-(3-fluorophenyl)-methyl]-cyclohexylmethyl}-4-propyl-4,5-dihydro-1H-imidazole-4-carboxylic acid methyl ester], the inhibition at 1 µM was determined as 101%.
Take `COC(=O)C1(CCSC)N=CN(Cc2ccccc2)C1CC1CCC(C(c2cccc(F)c2)N(C)C)CC1` (centres unmarked) [Example 139, 1-benzyl-5-{4-[dimethylamino-(3-fluorophenyl)-methyl]-cyclohexylmethyl}-4-(2-methylsulfanyl-ethyl)-4,5-dihydro-1H-imidazole-4-carboxylic acid methyl ester]: the inhibition at 1 µM was 100%.

Values taken from patent US7728028B2, “Substituted imidazoline compounds” (Gruenenthal GmbH, priority 2005, dated 2010).
